Measured values reported in publication PMC12040969, “Design, synthesis, in silico studies, and apoptotic antiproliferative activity of novel thiazole-2-acetamide derivatives as tubulin polymerization inhibitors” (Frontiers in Chemistry, 2025).
“And” between values parts separate entries of the source, which are not always exact repeats. Identical values can stand only once. One block for each molecule: values may come before it.

How the values were obtained:
[1] = test system: Bcl-2 in MDAMB-231 cancer cell line; experiment: Bcl-2 level assay; format: cell-based, human; settings: MDAMB-231 cells
Text: (§1) […]. Supplementary Appendix A provides more information.

[2] = test system: Caspase-9 in MDAMB-231 cancer cell line; experiment: Caspase-9 activation assay; format: cell-based, human; settings: MDAMB-231 cells
Description: […]. Compound 10o was the least efficient derivative as caspase-9 activators (0.90 ng/mL).
as §1

[3] = test system: breast - MCF-7; experiment: Antiproliferative assay (MTT) MCF-7; settings: for IC50: read-out: Antiproliferative activity IC50 ± SEM (µM) MCF-7, MCF-7, MTT
[4] = test system: Bax in MDAMB-231 cancer cell line; experiment: Bax level assay; format: cell-based, human; settings: MDAMB-231 cells
Text: as §1

[5] = test system: Caspase-3 in MDAMB-231 cancer cell line; experiment: Caspase-3 activation assay; format: cell-based, human; settings: MDAMB-231 cells
Text: as §1

[6] = Cell viability assay (MTT), normal cells; format: cell-based; settings: human, MCF-10A normal mammary gland epithelial cells, four-day incubation
[7] = test system: tubulin; experiment: Tubulin polymerization inhibition assay (Cytoskeleton kit);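 for all read-outs here: Cell-free tubulin polymerization read by fluorescent reporter enhancement over a 30 min reaction, with the compound-free kit control taken as 100% activity and inhibition relative to it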; settings: for Tub %inh / Tub. enzyme inhibition assay %inhibition: 30 min; for Tub %inh: YB-EGY run; for Tub K.Activity: EC = 120, YB-EGY run; for Tub. enzyme inhibition assay %inhibition: codes 522-537 run; for Tub. enzyme inhibition assay K. Activity: control = 120, codes 522-537 run; for IC50: read-out: Tubulin inhibition IC50 ± SEM, triplicate for each tested concentration
[8] = test system: prostatic - PC-3; experiment: Antiproliferative assay (MTT) PC-3; settings: for IC50: read-out: Antiproliferative activity IC50 ± SEM (µM) PC-3, PC-3, MTT
[9] = test system: colon - HCT-116; experiment: Antiproliferative assay (MTT) HCT-116; settings: for IC50: read-out: Antiproliferative activity IC50 ± SEM (µM) HCT-116, HCT-116, MTT
[10] = test system: pancreatic - MDAMB-231; experiment: Antiproliferative assay (MTT) MDAMB-231; settings: read-out: Antiproliferative activity IC50 ± SEM (µM) MDAMB-231; MDAMB-231, MTT
[11] = test system: - MDAMB-231; experiment: Antiproliferative assay (MTT) MDAMB-231
[12] = test system: four human cancer cell lines (HCT-116, PC-3, MCF-7, MDAMB-231); experiment: Antiproliferative assay, mean of four cell lines (GI50); settings: for Reduced potency compared to doxorubicin (GI50) / Reduced potency compared to sorafenib (GI50): GI50 ratio; for IC50: Homo sapiens, read-out: GI50 (average IC50)

Compound: Cc1nc(SCC(=O)Nc2nc(-c3ccccc3)cs2)sc1C(=O)/C=C/c1ccccc1 [Compound 10a, (E)-2-((5-cinnamoyl-4-methylthiazol-2-yl)thio)-N-(4-phenylthiazol-2-yl)acetamide]
Bcl-2 Conc [1]: 0.90 ng/mL | Caspase-9 Conc [2]: 1.60 ng/mL and 1.60 ± 0.10 ng/mL | IC50 [3]: 4 ± 0.2 µM | Bax Conc [4]: 305 pg/mL and 305 ± 8 pg/mL | Caspase-3 Conc [5]: 625 ± 5 pg/mL | viability at 96 h, 50 µM [6]: 87% | Tub %inh ([7]; conc 0.1 (unit not given)): 16.5% | Tub K.Activity ([7]; conc 0.1 (unit not given)): 100.18 | Tub %inh ([7]; conc 1 (unit not given)): 39.4% | Tub K.Activity ([7]; conc 1 (unit not given)): 72.71 | Tub %inh ([7]; conc 10 (unit not given)): 60.5% | Tub K.Activity ([7]; conc 10 (unit not given)): 47.391 | Tub %inh ([7]; conc 50 (unit not given)): 78.9% | Tub K.Activity ([7]; conc 50 (unit not given)): 25.374 | Tub %inh ([7]; conc 100 (unit not given)): 92.7% | Tub K.Activity ([7]; conc 100 (unit not given)): 8.7594 | Higher efficacy than sorafenib, PC-3 ([8]; PC-3 prostate cancer cell line): 1.7 fold | IC50 [8]: 7 ± 0.6 µM | IC50 [9]: 8 ± 0.7 µM

Compound: Cc1ccc(-c2csc(NC(=O)CSc3nc(C)c(C(=O)/C=C/c4ccc(F)cc4)s3)n2)cc1 [Compound 10m, (E)-2-((5-(3-(4-fluorophenyl)acryloyl)-4-methylthiazol-2-yl)thio)-N-(4-(p-tolyl)thiazol-2-yl)acetamide]
Average of Relative viability of cells (%) ([3]; MCF-7, 1.56 µM): 100% | Average of Relative viability of cells (%) ([3]; MCF-7, 3.125 µM): 91.6% | Average of Relative viability of cells (%) ([3]; MCF-7, 6.25 µM): 72.7% | Average of Relative viability of cells (%) ([3]; MCF-7, 12.5 µM): 53.5% | Average of Relative viability of cells (%) ([3]; MCF-7, 25 µM): 37.2% | Average of Relative viability of cells (%) ([3]; MCF-7, 50 µM): 28.4% | Average of Relative viability of cells (%) ([3]; MCF-7, 100 µM): 22.3% | IC50 [3]: 18 ± 1.4 µM | IC50 [10]: 20 ± 1.6 µM | Average of Relative viability of cells (%) ([11]; MDAMB-231, 1.56 µM): 100% | Average of Relative viability of cells (%) ([11]; MDAMB-231, 3.125 µM): 87.1% | Average of Relative viability of cells (%) ([11]; MDAMB-231, 6.25 µM): 68.5% | Average of Relative viability of cells (%) ([11]; MDAMB-231, 12.5 µM): 55.2% | Average of Relative viability of cells (%) ([11]; MDAMB-231, 25 µM): 43.7% | Average of Relative viability of cells (%) ([11]; MDAMB-231, 50 µM): 32.3% | Average of Relative viability of cells (%) ([11]; MDAMB-231, 100 µM): 24.8% | viability at 96 h, 50 µM [6]: 87% | Tub. enzyme inhibition assay %inhibition ([7]; conc 0.01 (unit not given)): 5.97% | Tub. enzyme inhibition assay K. Activity ([7]; conc 0.01 (unit not given)): 112.84 | Tub. enzyme inhibition assay %inhibition ([7]; conc 0.1 (unit not given)): 16.8% | Tub. enzyme inhibition assay K. Activity ([7]; conc 0.1 (unit not given)): 99.836 | Tub. enzyme inhibition assay %inhibition ([7]; conc 1 (unit not given)): 30% | Tub. enzyme inhibition assay K. Activity ([7]; conc 1 (unit not given)): 84.045 | Tub. enzyme inhibition assay %inhibition ([7]; conc 10 (unit not given)): 58% | Tub. enzyme inhibition assay K. Activity ([7]; conc 10 (unit not given)): 50.371 | Tub. enzyme inhibition assay %inhibition ([7]; conc 100 (unit not given)): 81.2% | Tub. enzyme inhibition assay K. Activity ([7]; conc 100 (unit not given)): 22.611 | IC50 [7]: 7.92 ± 0.29 µM | Tub. (IC50) IC50±SD ([7]; supplement raw data, lab codes): 4.039 ± 0.15 µg/mL | Average of Relative viability of cells (%) ([8]; PC-3, 1.56 µM): 100% | Average of Relative viability of cells (%) ([8]; PC-3, 3.125 µM): 98.5% | Average of Relative viability of cells (%) ([8]; PC-3, 6.25 µM): 84.1% | Average of Relative viability of cells (%) ([8]; PC-3, 12.5 µM): 70.2% | Average of Relative viability of cells (%) ([8]; PC-3, 25 µM): 57.4% | Average of Relative viability of cells (%) ([8]; PC-3, 50 µM): 46.7% | Average of Relative viability of cells (%) ([8]; PC-3, 100 µM): 36.8% | IC50 [8]: 43 ± 2.5 µM | Reduced potency compared to doxorubicin (GI50) [12]: at least 2.5 fold | Reduced potency compared to sorafenib (GI50) [12]: ≥ 1.5 fold | IC50 [12]: 29 µM | Average of Relative viability of cells (%) ([9]; HCT-116, 1.56 µM): 100% | Average of Relative viability of cells (%) ([9]; HCT-116, 3.125 µM): 99.8% | Average of Relative viability of cells (%) ([9]; HCT-116, 6.25 µM): 87.4% | Average of Relative viability of cells (%) ([9]; HCT-116, 12.5 µM): 67.3% | Average of Relative viability of cells (%) ([9]; HCT-116, 25 µM): 54.1% | Average of Relative viability of cells (%) ([9]; HCT-116, 50 µM): 43.7% | Average of Relative viability of cells (%) ([9]; HCT-116, 100 µM): 28.4% | IC50 [9]: 35 ± 2.2 µM

IC50 [3]: 28 ± 1.8 µM | IC50 [10]: 23 ± 1.7 µM | IC50 [7]: 6.05 ± 0.18 µM | IC50 [8]: 34 ± 2.1 µM | Reduced potency compared to doxorubicin (GI50) [12]: at least 2.5 fold | Reduced potency compared to sorafenib (GI50) [12]: ≥ 1.5 fold | IC50 [12]: 26 µM | IC50 [9]: 18 ± 1.4 µM
Compound: Cc1nc(SCC(=O)Nc2nccs2)sc1C(=O)/C=C/c1ccc(F)cc1 [Compound 13c, (E)-2-((5-(3-(4-fluorophenyl)acryloyl)-4-methylthiazol-2-yl)thio)-N-(thiazol-2-yl)acetamide]
Average of Relative viability of cells (%) ([3]; MCF-7, 1.56 µM): 100% | Average of Relative viability of cells (%) ([3]; MCF-7, 3.125 µM): 96.3% | Average of Relative viability of cells (%) ([3]; MCF-7, 6.25 µM): 83.0% | Average of Relative viability of cells (%) ([3]; MCF-7, 12.5 µM): 68.1% | Average of Relative viability of cells (%) ([3]; MCF-7, 25 µM): 51.6% | Average of Relative viability of cells (%) ([3]; MCF-7, 50 µM): 36.7% | Average of Relative viability of cells (%) ([3]; MCF-7, 100 µM): 21.7% | Average of Relative viability of cells (%) ([11]; MDAMB-231, 1.56 µM): 100% | Average of Relative viability of cells (%) ([11]; MDAMB-231, 3.125 µM): 93.3% | Average of Relative viability of cells (%) ([11]; MDAMB-231, 6.25 µM): 71.6% | Average of Relative viability of cells (%) ([11]; MDAMB-231, 12.5 µM): 54.8% | Average of Relative viability of cells (%) ([11]; MDAMB-231, 25 µM): 50.1% | Average of Relative viability of cells (%) ([11]; MDAMB-231, 50 µM): 38.9% | Average of Relative viability of cells (%) ([11]; MDAMB-231, 100 µM): 19.6% | viability at 96 h, 50 µM [6]: 86% | Tub %inh ([7]; conc 0.1 (unit not given)): 6.12% | Tub K.Activity ([7]; conc 0.1 (unit not given)): 112.66 | Tub %inh ([7]; conc 1 (unit not given)): 27.4% | Tub K.Activity ([7]; conc 1 (unit not given)): 87.115 | Tub %inh ([7]; conc 10 (unit not given)): 48.8% | Tub K.Activity ([7]; conc 10 (unit not given)): 61.436 | Tub %inh ([7]; conc 50 (unit not given)): 71.2% | Tub K.Activity ([7]; conc 50 (unit not given)): 34.549 | Tub %inh ([7]; conc 100 (unit not given)): 90.8% | Tub K.Activity ([7]; conc 100 (unit not given)): 10.995 | Average of Relative viability of cells (%) ([8]; PC-3, 1.56 µM): 100% | Average of Relative viability of cells (%) ([8]; PC-3, 3.125 µM): 99.1% | Average of Relative viability of cells (%) ([8]; PC-3, 6.25 µM): 87.9% | Average of Relative viability of cells (%) ([8]; PC-3, 12.5 µM): 67.7% | Average of Relative viability of cells (%) ([8]; PC-3, 25 µM): 54.6% | Average of Relative viability of cells (%) ([8]; PC-3, 50 µM): 42.1% | Average of Relative viability of cells (%) ([8]; PC-3, 100 µM): 28.8% | Average of Relative viability of cells (%) ([9]; HCT-116, 1.56 µM): 100% | Average of Relative viability of cells (%) ([9]; HCT-116, 3.125 µM): 92.6% | Average of Relative viability of cells (%) ([9]; HCT-116, 6.25 µM): 73.1% | Average of Relative viability of cells (%) ([9]; HCT-116, 12.5 µM): 51.3% | Average of Relative viability of cells (%) ([9]; HCT-116, 25 µM): 42.2% | Average of Relative viability of cells (%) ([9]; HCT-116, 50 µM): 29.9% | Average of Relative viability of cells (%) ([9]; HCT-116, 100 µM): 16.1%

Compound: CN[C@@H]1C[C@H]2O[C@@](C)([C@@H]1OC)n1c3ccccc3c3c4c(c5c6ccccc6n2c5c31)C(=O)NC4 [Staurosporine, reference compound]
Bcl-2 Conc [1]: 1.10 ng/mL | Bcl-2 Fold reduction ([1]; relative to untreated control): 5 fold | Caspase-9 Conc [2]: 1.30 ± 0.10 ng/mL | Caspase-9 Fold change ([2]; relative to untreated control): 13 fold | Caspase-9 Conc ([2]; listed as staurosporine): 1.30 ng/mL | Bax Conc [4]: 280 ± 7 pg/mL | Bax Fold change ([4]; relative to untreated control): 35 fold | Bax Conc ([4]; listed as staurosporine): 280 pg/mL | Caspase-3 Conc [5]: 510 ± 4 pg/mL | Caspase-3 Fold change ([5]; relative to untreated control): 8 fold
